Experimental data published in paper PMC8226474, “Design, Syntheses, and Bioevaluations of Some Novel N^2-Acryloylbenzohydrazides as Chemostimulants and Cytotoxic Agents” (Medicines, 2021).
Values joined by “and” are separate entries in the source; they are usually repeats but may differ in a detail not shown here. Equal values may be shown once.

Experiments:
MCF-7 cells = assay: Cytotoxicity assay, MCF-7 breast cancer cells; format: cell-based, human; details: Homo sapiens, MCF7, 48 h, read-out: percentage inhibition of MCF-7 cells
Source text: (§1) Evaluation of the cytotoxic properties of the compounds presented in Table 1, Table 2, Table 3 and Table 4 was undertaken using the procedure outlined in [7]. In brief, the HCT 116 cells were obtained from the ATCC and cultured in McCoy’s 5A medium. The CRL 1790 cells were obtained from the ATCC and cultured in Minimum Essential Medium. The MCF-7 and MDA-MBA-231 cells were obtained from the Saskatchewan Cancer Agency and cultured in DMEM. In each assay the culture medium was supplemented with 10% fetal bovine serum and 1% penicillin–streptomycin antibiotics. The time of the bioassays was 48 h, unless indicated otherwise. All determinations were carried out in triplicate on three different occasions.

JURKAT cells = assay: Cytotoxicity (CC50), Jurkat cells; format: cell-based, human; details: for CC50: Homo sapiens, Jurkat, 24 h incubation; for SI JURKAT: average CC50 of non-malignant cells / CC50 JURKAT
Protocol: (§2) In brief, the compounds were incubated for 24 h with the neoplasms, using DMEM and RPMI media. Three independent experiments were carried out.

NALM-60 cells = assay: Cytotoxicity (CC50), NALM-60 cells; format: cell-based, human; details: for CC50: Homo sapiens, 24 h incubation; for SI NALM-60: average CC50 of non-malignant cells / CC50 NALM-60
Protocol: as §2

CEM cells = assay: Cytotoxicity (CC50), CEM cells; format: cell-based, human; details: for CC50: Homo sapiens, CCRF-CEM, 24 h incubation; for SI CEM: average CC50 of non-malignant cells / CC50 CEM
Protocol: as §2

[1] = Cytotoxicity (CC50), non-malignant Hs27 foreskin cells; format: cell-based; details: human, 24 h incubation
Protocol: as §2

HL-60 cells = assay: Cytotoxicity (CC50), HL-60 cells; format: cell-based, human; details: for CC50: Homo sapiens, HL-60, 24 h incubation; for SI HL-60: average CC50 of non-malignant cells / CC50 HL-60
Protocol: as §2

Ramos cells = assay: Cytotoxicity (CC50), Ramos cells; format: cell-based, human; details: for CC50: Homo sapiens, Ramos, 24 h incubation; for SI Ramos: average CC50 of non-malignant cells / CC50 Ramos
Protocol: as §2

MDA-MB-231 cells = assay: Cytotoxicity assay, MDA-MB-231 breast cancer cells; format: cell-based, human; details: Homo sapiens, MDA-MB-231, 48 h, read-out: percentage inhibition of MDA-MB-231 cells
Source text: as §1

[2] = system: Ramos, NALM-60, CEM, HL-60, JURKAT, RAJI cells; assay: Cytotoxicity (CC50), average over six leukemia/lymphoma cell lines; format: cell-based, human; details: for CC50: Homo sapiens, average over six neoplastic cell lines
Protocol: as §2

RAJI cells = assay: Cytotoxicity (CC50), Raji cells; format: cell-based, human; details: for CC50: Homo sapiens, Raji, 24 h incubation; for SI RAJI: average CC50 of non-malignant cells / CC50 RAJI
Protocol: as §2

[3] = Cytotoxicity (CC50), non-malignant MCF-10A breast cells; format: cell-based; details: human, MCF-10A cells (non-malignant breast cells); 24 h incubation; read-out: Non-Malignant Cells CC50, MCF10A
Protocol: as §2

HCT 116 cells [4] = assay: Cytotoxicity assay, HCT 116 colon cancer cells; format: cell-based, human; details: for inhibition at 10 µM / inhibition at 100 µM: read-out: percentage inhibition of HCT 116 cells
Source text: as §1

[5] = Cytotoxicity (CC50), average over non-malignant cells; format: cell-based; details: human, Hs27 and MCF10A cells (non-malignant), average of both
Protocol: as §2

HCT 116 cells [6] = assay: Mitochondrial membrane potential of HCT 116 cells (TMRE dye); format: cell-based, human; details: IC50 concentration towards HCT 116, 48 h, Figure 4
Source text: The method of Crowley et al. was employed in order to ascertain the effects of 1m, 7a, e, g, and 5-FU on the mitochondrial membrane potential of HCT 116 cells.
The decision was made to experiment with another method for determining the effect of compounds on the MMP. In this assay, the dye used was tetramethylrhodamine ethyl ester (TMRE), which can be found in the mitochondria of healthy cells. However, in apoptotic cells, the dye is released into the cytosol, leading to a decrease in the fluorescence signal.

HCT 116 cells [7] = assay: ROS levels in HCT 116 cells (DCF-DA dye); format: cell-based, human; details: IC50 concentration towards HCT 116; DCF-DA fluorescence; Figure 5
Protocol: In this assay, the dye 2,7-dichlorofluorescein diacetate (DCF-DA) was used, and the effects of 1m, 7a, e, g, and 5-FU on the ROS levels in HCT 116 cells were determined by the method of [11].
The evaluation of 1m, […], e, and g for their capacity to increase the concentration of ROS in HCT 116 cells used 2′,7′-dichlorofluorescein diacetate. This dye is deacetylated in cells, and is converted into a non-fluorescent compound that reacts with ROS to form 2′,7′-dichlorofluorescein, which is fluorescent.

HCT 116 cells [8] = assay: Chemosensitization of HCT 116 cells: 1m for 24 h, then 2a or 5-FU for a further 24 h; format: cell-based, human; details: for Reduction in Live Cells % 1m (48 h): DMSO figure minus compound figure
Source text: as §1
The next phase of the investigation was to determine whether a representative compound in series 1 chemosensitizes HCT 116 cells to a 3,5-bis(benzylidene)-4-piperidone 2a. […] The colon cancer cells were incubated for 24 h with 1m, and then 2a was added and the incubation was continued for a further 24 h. Different concentrations of both 1m and 2a were employed, and the results are presented as entries 1–12 in Table 3. In addition, the effects of each of 1m, 2a, and 5-FU on HCT 116 cells (which are necessary for the evaluation of whether chemosensitivity occurs) were recorded, and are presented as entries 13–20 in Table 3.
The concentration of 1m in combination 4 is 5 µM, which after 48 h causes a percentage reduction of live cells to 86% (DMSO figure after 48 h, line 20) minus 75% (48 h, line 13), or 11%.
The concentration of 2a in combination 4 is 0.2 µM. This combination leads to a reduction of the percentage of live cells to 91% (DMSO figure after 24 h, line 20) minus 69%, or 22%.
The percentage reduction in live cells caused by a combination of 1m (5 µM) and 2a (0.2 µM), in the absence of chemosensitization, is 11% plus 22%, or 33%.
However, the percentage reduction in cells as indicated on line 4 is 86% (DMSO figure after 48 h) minus 12% (line 4, 48 h figure), or 74%.

CRL 1790 cells = assay: Cytotoxicity assay, non-malignant CRL 1790 colon cells; format: cell-based; details: Homo sapiens, 48 h, Table 2, read-out: Non-Malignant CRL 1790 Cells IC50
Source text: as §1

SMILES	inhibition at 10 µM (MCF-7 cells)	inhibition at 100 µM (MCF-7 cells)	CC50 (JURKAT cells)	SI JURKAT (JURKAT cells)	CC50 (NALM-60 cells)	SI NALM-60 (NALM-60 cells)	CC50 (CEM cells)	SI CEM (CEM cells)	CC50 at 24 h [1]	CC50 (HL-60 cells)	SI HL-60 (HL-60 cells)	CC50 (Ramos cells)	SI Ramos (Ramos cells)	inhibition at 10 µM (MDA-MB-231 cells)	inhibition at 100 µM (MDA-MB-231 cells)	Avg SI, neoplastic cells [2]	CC50 [2]	melting point	inhibition at 10 µM (HCT 116 cells [4]; Homo sapiens, HCT-116, 48 h)	inhibition at 100 µM (HCT 116 cells [4]; Homo sapiens, HCT-116, 48 h)	also measured
C=CC(=O)NNC(=O)c1ccc(Cl)cc1 [1d, N^2-Acryloyl-4-chlorobenzohydrazide]	3.59 ± 2.08%	55.9 ± 2.82%	1.07 ± 0.09 µM	8.12	2.86 ± 0.55 µM	3.04	0.86 ± 0.07 µM	10.1	10.5 ± 0.05 µM	2.9 ± 0.76 µM	3.00	0.15 ± 0.02 µM	57.9	-12.3 ± 4.05%	49.1 ± 2.04%	14.2	1.76 µM	233 to 235 °C	-5.05 ± 2.36%	82.3 ± 0.8%	CC50 (RAJI cells): 2.71 ± 0.09 µM; SI RAJI (RAJI cells): 3.24; CC50 at 24 h [3]: 6.87 ± 0.48 µM; CC50 at 24 h [5]: 8.69 µM
C=CC(=O)NNC(=O)c1cc(Cl)ccc1Cl [1h, N^2-Acryloyl-2,5-dichlorobenzohydrazide]	14.7 ± 3.68%	54.2 ± 3.42%	2.5 ± 0.24 µM	5.48	3.34 ± 0.43 µM	4.10	3.37 ± 0.18 µM	4.07	14.4 ± 0.24 µM	5.62 ± 0.29 µM	2.44	0.29 ± 0.05 µM	47.2	-5.95 ± 4.21%	122 ± 2.9%	11.0	3.44 µM	207 to 210 °C	7.12 ± 1.51%	87.7 ± 1.62%	CC50 (RAJI cells): 5.5 ± 1.1 µM; SI RAJI (RAJI cells): 2.49; CC50 at 24 h [3]: 12.9 ± 0.95 µM; CC50 at 24 h [5]: 13.7 µM
C=CC(=O)NNC(=O)c1ccc(OC)c(OC)c1 [1m, N^2-Acryloyl-3,4-dimethoxylbenzohydrazide]	-16.1 ± 3.51%	> 100%	–	–	–	–	–	–	–	–	–	–	–	-15.9 ± 1.96%	50.5 ± 1.42%	–	–	163 to 165 °C	46.9 ± 2.55%	97.9 ± 1.92%	effect on mitochondrial membrane potential of HCT 116 cells (HCT 116 cells [6]): only 7e reduces the electrochemical potential of the mitochondria; effect on ROS levels in HCT 116 cells (HCT 116 cells [7]): increase the fluorescence intensity; Reduction in Live Cells % 1m (48 h) (HCT 116 cells [8]; 1m 5 µM alone, 48 h): 11%; Reduction in Live Cells % 1m (48 h) (HCT 116 cells [8]; 1m 10 µM alone, 48 h): 29%; Reduction in Live Cells % 1m (48 h) (HCT 116 cells [8]; 1m 15 µM alone, 48 h): 54%; chemosensitization of HCT 116 cells (HCT 116 cells [8]; 1m 24 h before the cytotoxin, certain concentrations): sensitizes HCT 116 cells to the potent cytotoxin 2a, and also to the established anticancer drug 5-FU; Live Cells % (HCT 116 cells [8]; entry 13: 1m 5 µM alone, 24 h): 88 ± 2.82%; Live Cells % (HCT 116 cells [8]; entry 13: 1m 5 µM alone, 48 h): 75% and 75 ± 4.89%; Live Cells % (HCT 116 cells [8]; entry 14: 1m 10 µM alone, 24 h): 67 ± 1.67%; Live Cells % (HCT 116 cells [8]; entry 14: 1m 10 µM alone, 48 h): 57 ± 1.76%; Live Cells % (HCT 116 cells [8]; entry 15: 1m 15 µM alone, 24 h): 61 ± 3.49%; Live Cells % (HCT 116 cells [8]; entry 15: 1m 15 µM alone, 48 h): 32 ± 0.94%; IC50 (HCT 116 cells [4]; Homo sapiens, HCT-116, Table 2, 48 h, read-out: Neoplastic Cells IC50, HCT 116): 15.3 ± 0.42 µM; SI (selectivity index) (HCT 116 cells [4]; IC50 CRL 1790 / IC50 HCT 116, Table 2): >6.54; IC50 (CRL 1790 cells): > 100 µM
